Measured values from patent publication US20260242874A1, “METHOD OF PREDICTING RESPONSE TO TREATMENT” (LINNANE PHARMA AB, priority 2023, published 2026).

How the values were obtained:
[1] = tested on: cancer related genes in bladder tumors; experiment: Gene expression analysis (RNA sequencing) of tumors; format: in vivo, human; details: log FC≤−0.10; individual tumors
NMIBC = experiment: Overall tumor response in patients with NMIBC (clinical and molecular end points); format: in vivo, human
Source text: Selecting relevant treatment end points is especially challenging for conditions where cure is elusive. New molecular tools may offer increased resolution of the disease response, to complement clinical observation and understand the potential of new drug candidates. This study used a combination of clinical and molecular tools to define the tumor response to alpha1-oleate in patients with NMIBC. In addition to the evaluation of the change in tumor size, the tumor response was defined by the shedding of tumor cells and fragments into the urine, by the uptake of alpha1-oleate by the tumor and by evidence of tumor cell specific apoptosis. Gene expression analysis of tumor RNA further identified interesting differences between the groups defined as CR, PR and NR by visual inspection.
After diagnosis and informed consent, the subjects received intra-vesical instillations of either alpha1-oleate or placebo on six occasions during one month preceding a scheduled transurethral resection (TURB). A safety follow-up was performed 52 days after the first instillation.

[2] = tested on: non-muscle invasive bladder cancer tumors; experiment: Tumor histopathology of biopsies; format: in vivo, human; details: treated tumors compared to the placebo group
Source text: The tumor response was further evaluated by histopathology. […] A complete response was confirmed by a lack of tumor tissue in the control biopsy or presence of minor residual tissue stroma without tumor cells. In the partial responders, fragmentation and cell shedding left few intact papilli and the tissue surface appeared denuded. In addition, tumor tissue surrounding the target lesion was affected in the responding patients, including satellite tumors, which had disappeared.
Tumor biopsies, collected at the time of surgery were evaluated by histopathology, using established parameters for scoring of Grade and Stage/Invasiveness. Tissue samples were analyzed by a designated study uro-pathologist. Both grading classifications (WHO 1973 and 2004/2016) were used. Biopsies from healthy tissue areas distant from the tumor were collected for comparison.

bladder tumor cells = experiment: Cell shedding into urine after intravesical instillation; format: in vivo, human
Protocol: Intravesical alpha1-oleate instillations triggered a rapid tumor response, which was quantified by comparing the pre-instillation sample in each patient to the first urine sample obtained post instillation (≤2 hours).
To quantify the shedding of cells and cell clusters into the urine, samples were obtained from each patient prior to and after each instillation of alpha1-oleate or placebo (Visit 1-Visit 6). Cell shedding was quantified by counting the total number of epithelial cells in a unit of uncentrifuged urine under light microscopy, using a hemocytometer chamber. Changes in cell shedding were quantified at each visit, by comparing cell numbers in samples obtained before and after each instillation. The cell clusters were scored based on the examination of these samples by an experienced pathologist on a range of 0-2 where 0=no clusters and 2=the highest number of clusters.

[3] = tested on: cancer related genes in bladder tumors; experiment: Gene expression analysis (RNA sequencing) of tumors; format: in vivo, human
Source text: The tumor response was characterized in greater detail by sequencing of RNA extracted from tumor tissue obtained at TURB and from biopsies obtained from adjacent tissue with a healthy appearance.
Individual tumors in patients treated with alpha1-oleate were defined as complete responders (CR), if the tumor was removed, partial responders (PR) if the tumor size was reduced, stable disease if the tumor size was unchanged (SD) or as non-responders, if the tumor size increased (Cut off=25% change in tumor size) (FIG. 1a). The effects of alpha1-oleate on gene expression were further examined for individual patients and tumors, using […], and differences were detected relative to the clinical treatment response of each tumor. By Principal component analysis (PCA FIG. 1b) the majority of responding tumors formed a cluster with a similar overall gene expression profile.
RNA was extracted from tissues stabilized in RNAlater using the AllPrep DNA/RNA/miRNA Universal Kit. Disruption was in the TissueLyser system and CK28 Precellys tubes and by homogenization in the QIAshredder homogenizer. The quantity and quality of the RNA samples were evaluated using NanoDrop and Agilent 2100 Bioanalyzer. RNA samples were prepared by Illumina TruSeq Stranded mRNA Library Prep Kit (20020594), and libraries were multiplexed and sequenced using NextSeq 500/550 High Output Kits (v2.5 2×75 Cycles) with an average of 22 million reads per sample. Raw sequencing data was demultiplexed using bcl2fastq (version 2.18) and RSEM (1.3) was used for abundance estimation using the human genome release 37/Ensemble 75. Samples were thoroughly QCed and visualized using dimensionality reduction (i.e PCA), MA-plots as well as RNA-seq intrinsic biases (such as GC bias, transcriptome complexity and alignment quality). Differential expression analysis was performed using R (version 3.4) and the packages limma and DESeq2. Fold change were calculated by comparing tumors in the treated to the placebo group. Relative expression levels were analyzed and genes with an absolute fold change >2.0 and P<0.05 were considered as differentially expressed. Heat-maps were constructed using the Gitools 2.1.1 software. Differentially expressed genes were functionally characterized using the Ingenuity Pathway Analysis version 57662101 (IPA, Qiagen) software.
In a clinical study from an ongoing randomized, placebo-controlled phase II trial in patients with non-muscle invasive bladder cancer (NMIBC), treatment with the tumor-killing peptide-lipid complex Alpha1-Hamlet, by instillations to the patients' bladders, has shown promising therapeutic effects. Tumor tissue samples of patients (obtained post-treatment at visit number 6) were analyzed.

adiponectin = experiment: Adiponectin-ELISA of urine samples; format: in vivo, human; details: treated patients vs placebo, P<0.001
Protocol: To investigate levels of adiponectin protein in the urine samples of patients, an Adiponectin-ELISA test (Proteintech) was performed. The signal (absorbance) values were measured at 480 nm and interpolated to concentration (pg/mL) values using a linear regression statistical analysis. […] Graph showing urine adiponectin levels in both groups, with samples taken pre Visit 1, post Visit 1, Post Visit 3 and Post Visit 6. Line show change in median urine adiponectin levels (FIG. 4). There was statistically significant positive correlation between number of cells (shed) in urine samples and measure adiponectin levels (P=0,002), using linear regression (FIG. 4). Statistical analysis was done in GraphPad Prism.

shed bladder tumor cells = experiment: DNA strand breaks by TUNEL staining of shed cells; format: in vivo, human; details: shed cells post-instillation vs pre-instillation, all treated patients
Protocol: Double strand DNA breaks were quantified by TUNEL staining, comparing shed cells post alpha1-oleate instillation, to the pre-instillation samples.
DNA fragmentation was detected using the terminal deoxynucleotidyl transferase dUTP nick end-labelling (TUNEL) assay (Click-iT TUNEL Alexa Fluor 488 imaging assay kit, ThermoFisher). Tissue sections were de-paraffinized with xylene followed by serial dehydration with ethanol (100, 95, 75 and 50%). Dehydrated sections were fixed (4% PFA, 15 min), permeabilized (DNase-free Protease K solution 20 μg/mL, 15 min) and incubated with TUNEL reaction mixture containing TdT for 60 min at 37° C. After the TUNEL reaction, sections were incubated with Click-iT reaction mixture (30 min, 37° C.). Sections were counterstained with DAPI (1 μg/mL, 5 minutes), mounted in Fluoromount aqueous mounting media, and analyzed by fluorescence microscopy (Zeiss). Fluorescence intensities were quantified by ImageJ and net mean fluorescence intensity calculated after subtraction of background fluorescence.

tumor cells = details: cited from earlier work
skin papillomas = details: topical application; cited from earlier work
bladder cancer cells = details: local instillations; cited from earlier work

## alpha1-oleate: tumor-killing peptide-lipid complex of the synthetic alpha1 peptide (aa 1-39 of human alpha-lactalbumin) and oleate
[1]
  number of genes strongly down-regulated in all treated tumors: 297
NMIBC
  responders by tumor cell shedding, apoptosis and inhibition of cancer related genes: all patients in this study were definable as responders
[2]
  tumor response by histopathology: Significant changes
Bladder tumor cells; at each visit compared to each pre-instillation sample
  cell numbers in urine post instillation: highly significant increase
Bladder tumor cells; first urine sample post instillation (≤2 hours)
  cell shedding: detected in all patients
[3]; 8.5 mM treated patients compared to placebo treated patients, tumor tissue post-treatment at visit 6
  ADIPOQ gene expression FC: −5353.7
[3]; RNA from tumor tissue obtained at TURB
  number of genes regulated (heat map analysis): over 3500
[3]; all treated tumors
  PRAME log FC: ≤ −10
  PTPRT log FC: ≤ −10
[3]; in vivo
  EGR3 expression: strongly downregulated
  bladder cancer related genes: strongly inhibited
  tumor microenvironment pathway genes (VEGFD, TGFB2, TGFB3, FGF1, FGF5, FGF7, FGF10, IGF1): downregulated
[3]; network analysis
  ADIPOQ dependent molecules downregulated: 66
  ADIPOQ dependent molecules strongly regulated: 78
  ADIPOQ dependent molecules upregulated: 12
[3]; of the 297 inhibited genes
  inhibited genes that were bladder cancer related: 31/297
[3]; pathway analysis, cytokine storm signaling and G protein coupled receptor signaling
  innate immune response genes: strongly down-regulated
adiponectin
  urine adiponectin levels: significantly higher
Shed bladder tumor cells
  TUNEL staining (double strand DNA breaks): marked increase

B1: HAMLET: human alpha-lactalbumin made lethal to tumor cells; complex of partially unfolded α-lactalbumin and oleic acid (protein, UniProt P00709 20-142, looked up)
Alpha-lactalbumin: KQFTKCELSQLLKDIDGYGGIALPELICTMFHTSGYDTQAIVENNESTEYGLFQISNKLWCKSSQVPQSRNICDISCDKFLDDDITDDIMCAKKILDIKGIDYWLAHKALCTEKLEQWLCEKL
modifications: oleic acid complex
Tumor cells
  tumoricidal activity in vitro: kills many types of tumor cells
Skin papillomas
  effect on skin papillomas: removed or reduced skin papillomas
Bladder cancer cells
  effect on bladder cancer cells: killed bladder cancer cells but not healthy cells in surrounding tissues
  effect on tumor size: caused a reduction in tumor size

B2: BAMLET: complex made by mixing bovine alpha-lactalbumin with oleic acid (protein, UniProt P00711 20-142, looked up)
Alpha-lactalbumin: EQLTKCEVFRELKDLKGYGGVSLPEWVCTTFHTSGYDTQAIVQNNDSTEYGLFQINNKIWCKDDQNPHSSNICNISCDKFLDDDLTDDIMCVKKILDKVGINYWLAHKALCSEKLDQWLCEKL
modifications: oleic acid complex
Tumor cells; Rammer et al. (2010)
  effects on tumour cells compared with HAMLET: qualitatively similar effects
